# Assay results: the supplement of paper PMC10307832
# Compound: CC(C)C[C@H](NC(=O)[C@H](CCc1ccccc1)NC(=O)CN1CCOCC1)C(=O)N[C@@H](Cc1ccccc1)C(=O)N[C@@H](CC(C)C)C(=O)[C@@]1(C)CO1 [Carfilzomib] + CCNC(=O)c1noc(-c2cc(C(C)C)c(O)cc2O)c1-c1ccc(CN2CCOCC2)cc1 [Luminespib] (partner 0.01 µM)
# Test: relative viability (nuclei count vs DMSO), 5 days (fraction); higher = more cells survive
# Details: first compound 0.001 µM
# Method in brief: (§1)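 The day after seeding in 1536-well plates, lung cancer cell lines were treated by pin tool with a single drug, or with a fixed anchor-drug dose together with five library-drug doses (not always all listed) in √10 steps. After 5 days, a combined fix-and-stain solution (final 0.05% Triton X-100, 1% formaldehyde, 1 ug/ml Hoechst) was added. Nuclei counted on 4× images gave relative viability as treated counts over vehicle counts, reported as the median of duplicate plates.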
row,Cell Line,relative viability
1,NCI-H3122,0.064
2,PC-3 [JPC-3],0.754
3,PC-14,0.143
4,RERF-LC-KJ,1.24
5,SK-LU-1,0.238
6,SK-MES-1,0.854
7,SW 1573,0.317
8,UMC-11,1.01

# Same assay, conditions: first compound 0.003162 µM
row,Cell Line,relative viability
1,NCI-H3122,0.0963
2,PC-3 [JPC-3],0.706
3,PC-14,0.176
4,RERF-LC-KJ,1.29
5,SK-LU-1,0.223
6,SK-MES-1,0.902
7,SW 1573,0.23
8,UMC-11,1.01

# Same assay, conditions: first compound 0.01 µM
row,Cell Line,relative viability
1,NCI-H3122,0.106
2,PC-3 [JPC-3],0.742
3,PC-14,0.18
4,RERF-LC-KJ,1.32
5,SK-LU-1,0.211
6,SK-MES-1,0.759
7,SW 1573,0.368
8,UMC-11,1.02

# Same assay, conditions: first compound 0.03162 µM
row,Cell Line,relative viability
1,NCI-H3122,0.107
2,PC-3 [JPC-3],0.646
3,PC-14,0.117
4,RERF-LC-KJ,0.609
5,SK-LU-1,0.154
6,SK-MES-1,0.544
7,SW 1573,0.0748
8,UMC-11,0.846

# Same assay, conditions: first compound 0.1 µM
row,Cell Line,relative viability
1,NCI-H3122,0.106
2,PC-3 [JPC-3],0.331
3,PC-14,0.109
4,RERF-LC-KJ,0.224
5,SK-LU-1,0.13
6,SK-MES-1,0.172
7,SW 1573,0.057
8,UMC-11,0.268

# Compound: CC(C)C[C@H](NC(=O)[C@H](CCc1ccccc1)NC(=O)CN1CCOCC1)C(=O)N[C@@H](Cc1ccccc1)C(=O)N[C@@H](CC(C)C)C(=O)[C@@]1(C)CO1 [Carfilzomib] + C[C@]1(O)C[C@@H](c2nc(-c3ccc4ccc(-c5ccccc5)nc4c3)c3c(N)nccn32)C1 [Linsitinib] (partner 1 µM)
# Test: as above
# Details: first compound 0.001 µM
# Method in brief: as §1
row,Cell Line,relative viability
1,NCI-H3122,0.958
2,PC-3 [JPC-3],1
3,PC-14,1.09
4,RERF-LC-KJ,0.888
5,SK-LU-1,1.08
6,SK-MES-1,1.17
7,SW 1573,0.736
8,UMC-11,0.981

# Same assay, conditions: first compound 0.003162 µM
row,Cell Line,relative viability
1,NCI-H3122,1.05
2,PC-3 [JPC-3],0.881
3,PC-14,0.937
4,RERF-LC-KJ,0.919
5,SK-LU-1,1.34
6,SK-MES-1,1.16
7,SW 1573,0.881
8,UMC-11,1.03

# Same assay, conditions: first compound 0.01 µM
row,Cell Line,relative viability
1,NCI-H3122,0.95
2,PC-3 [JPC-3],1
3,PC-14,1.08
4,RERF-LC-KJ,1.05
5,SK-LU-1,0.949
6,SK-MES-1,1.17
7,SW 1573,0.75
8,UMC-11,1.01

# Same assay, conditions: first compound 0.03162 µM
row,Cell Line,relative viability
1,NCI-H3122,1
2,PC-3 [JPC-3],0.86
3,PC-14,0.215
4,RERF-LC-KJ,0.776
5,SK-LU-1,0.173
6,SK-MES-1,1.03
7,SW 1573,0.268
8,UMC-11,0.949

# Same assay, conditions: first compound 0.1 µM
row,Cell Line,relative viability
1,NCI-H3122,0.806
2,PC-3 [JPC-3],0.466
3,PC-14,0.12
4,RERF-LC-KJ,0.353
5,SK-LU-1,0.161
6,SK-MES-1,0.334
7,SW 1573,0.0735
8,UMC-11,0.224

# Compound: O=C(c1cc(Cc2n[nH]c(=O)c3ccccc23)ccc1F)N1CCN(C(=O)C2CC2)CC1 [Olaparib] + CC(=O)Nc1cccc(-n2c(=O)n(C3CC3)c(=O)c3c(Nc4ccc(I)cc4F)n(C)c(=O)c(C)c32)c1 [Trametinib] (partner 0.02 µM)
# Test: as above
# Details: first compound 0.08 µM
# Method in brief: as §1
row,Cell Line,relative viability
1,NCI-H3122,0.219
2,PC-3 [JPC-3],0.777
3,PC-14,0.937
4,RERF-LC-KJ,0.98
5,SK-LU-1,0.515
6,SK-MES-1,0.577
7,SW 1573,0.591
8,UMC-11,0.651

# Same assay, conditions: first compound 0.253 µM
row,Cell Line,relative viability
1,NCI-H3122,0.238
2,PC-14,0.646
3,RERF-LC-KJ,0.825
4,SK-LU-1,0.402
5,SK-MES-1,0.539
6,SW 1573,0.565
7,UMC-11,0.644

# Same assay, conditions: first compound 2.53 µM
row,Cell Line,relative viability
1,NCI-H3122,0.241
2,PC-3 [JPC-3],0.712
3,PC-14,0.434
4,RERF-LC-KJ,0.949
5,SK-LU-1,0.496
6,SK-MES-1,0.608
7,SW 1573,0.515
8,UMC-11,0.59

# Same assay, conditions: first compound 8 µM
row,Cell Line,relative viability
1,NCI-H3122,0.203
2,PC-3 [JPC-3],0.744
3,PC-14,0.456
4,RERF-LC-KJ,0.878
5,SK-LU-1,0.417
6,SK-MES-1,0.616
7,SW 1573,0.473
8,UMC-11,0.376

# Compound: O=C(c1cc(Cc2n[nH]c(=O)c3ccccc23)ccc1F)N1CCN(C(=O)C2CC2)CC1 [Olaparib] + Cc1cc(Nc2cc(N3CCN(C)CC3)nc(Sc3ccc(NC(=O)C4CC4)cc3)n2)n[nH]1 [Tozasertib] (partner 0.1 µM)
# Test: as above
# Details: first compound 0.08 µM
# Method in brief: as §1
row,Cell Line,relative viability
1,NCI-H3122,0.466
2,PC-3 [JPC-3],0.913
3,PC-14,0.602
4,RERF-LC-KJ,0.531
5,SK-LU-1,0.355
6,SK-MES-1,0.962
7,SW 1573,0.148
8,UMC-11,0.231

# Same assay, conditions: first compound 0.253 µM
row,Cell Line,relative viability
1,NCI-H3122,0.376
2,PC-3 [JPC-3],0.855
3,PC-14,0.557
4,RERF-LC-KJ,0.453
5,SK-LU-1,0.323
6,SK-MES-1,0.828
7,SW 1573,0.165
8,UMC-11,0.208

# Same assay, conditions: first compound 2.53 µM
row,Cell Line,relative viability
1,NCI-H3122,0.457
2,PC-3 [JPC-3],0.946
3,PC-14,0.536
4,RERF-LC-KJ,0.505
5,SK-LU-1,0.335
6,SK-MES-1,0.818
7,SW 1573,0.234
8,UMC-11,0.235

# Same assay, conditions: first compound 8 µM
row,Cell Line,relative viability
1,NCI-H3122,0.346
2,PC-3 [JPC-3],0.843
3,PC-14,0.419
4,RERF-LC-KJ,0.475
5,SK-LU-1,0.247
6,SK-MES-1,0.562
7,SW 1573,0.172
8,UMC-11,0.253
